Experimental data taken from PubChem BioAssay AID248 (DTP/NCI, 2004).
“And” between values parts separate entries of the source, which are not always exact repeats. Equal entries are not always repeated. Toxic doses and inconclusive results are not listed. Cut-off read from the data, not from the text of the source: active = T/C of 150% or more; inactive = T/C below 125%.

Test system: L1210 leukemia ip in BDF1 mice, survival T/C
Assay: NCI In Vivo Anticancer Drug Screen. Data for tumor model L1210 Leukemia (intraperitoneal) in B6D2F1 (BDF1) mice
Conditions: endpoint: mean survival time, higher = longer survival
Method in brief: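 Value reflects the ratio of survival in compound-treated mice to survival in vehicle-treated controls, with both groups carrying the same transplanted tumor.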

[1] = dose: 25.0 mg/kg/injection, schedule: Q04DX003 (ip), vehicle: Klucel (hydroxypropylcellulose) (HPC)
[2] = dose: 50.0 mg/kg/injection, schedule: Q04DX003 (ip), vehicle: Klucel (hydroxypropylcellulose) (HPC)
[3] = dose: 100.0 mg/kg/injection, schedule: Q01DX001 (ip), vehicle: saline
[4] = dose: 200.0 mg/kg/injection, schedule: Q01DX001 (ip), vehicle: saline
[5] = dose: 400.0 mg/kg/injection, schedule: Q01DX001 (ip), vehicle: saline
[6] = dose: 100.0 mg/kg/injection, schedule: Q01DX009 (ip), vehicle: Klucel (hydroxypropylcellulose) (HPC)
[7] = dose: 200.0 mg/kg/injection, schedule: Q01DX009 (ip), vehicle: Klucel (hydroxypropylcellulose) (HPC)
[8] = dose: 400.0 mg/kg/injection, schedule: Q01DX009 (ip), vehicle: Klucel (hydroxypropylcellulose) (HPC)
[9] = dose: 100.0 mg/kg/injection, schedule: Q01DX009 (ip), vehicle: saline with Tween-80
[10] = dose: 100.0 mg/kg/injection, schedule: Q04DX003 (ip), vehicle: saline with Tween-80
[11] = dose: 200.0 mg/kg/injection, schedule: Q01DX009 (ip), vehicle: saline with Tween-80
[12] = dose: 200.0 mg/kg/injection, schedule: Q04DX003 (ip), vehicle: saline with Tween-80
[13] = dose: 400.0 mg/kg/injection, schedule: Q01DX009 (ip), vehicle: saline with Tween-80
[14] = dose: 400.0 mg/kg/injection, schedule: Q04DX003 (ip), vehicle: saline with Tween-80
[15] = dose: 100.0 mg/kg/injection, schedule: Q04DX003 (ip), vehicle: saline
[16] = dose: 200.0 mg/kg/injection, schedule: Q04DX003 (ip), vehicle: saline
[17] = dose: 400.0 mg/kg/injection, schedule: Q04DX003 (ip), vehicle: saline

Measured: T/C

O=S(=O)(c1ccc(Cl)cc1)C(F)F
inactive: dose: 12.5 mg/kg/injection, schedule: Q01DX009 (ip), vehicle: Klucel (hydroxypropylcellulose) (HPC) 89 % of control | dose: 12.5 mg/kg/injection, schedule: Q04DX003 (ip), vehicle: Klucel (hydroxypropylcellulose) (HPC) 91 % of control | dose: 25.0 mg/kg/injection, schedule: Q01DX009 (ip), vehicle: Klucel (hydroxypropylcellulose) (HPC) 93 % of control | [1] 89 % of control | dose: 50.0 mg/kg/injection, schedule: Q01DX009 (ip), vehicle: Klucel (hydroxypropylcellulose) (HPC) 91 % of control | [2] 97 % of control

O=C(/C=C/C=C/C=C/C=C/C(=O)N1CCCCC1)N1CCCCC1
inactive: [3] 97 % of control | [4] 92 % of control | [5] 89 % of control

ClCCN=Cc1ccc(Cl)cc1
inactive: [6] 96 % of control | dose: 100.0 mg/kg/injection, schedule: Q04DX002 (ip), vehicle: Klucel (hydroxypropylcellulose) (HPC) 96 % of control | [7] 91 % of control | dose: 200.0 mg/kg/injection, schedule: Q04DX002 (ip), vehicle: Klucel (hydroxypropylcellulose) (HPC) 100 % of control | [8] 96 % of control | dose: 400.0 mg/kg/injection, schedule: Q04DX002 (ip), vehicle: Klucel (hydroxypropylcellulose) (HPC) 100 % of control

NC(N)=N/N=C/N1CCCCC1
inactive: dose: 60.0 mg/kg/injection, schedule: Q01DX Z (oral), vehicle: methylcellulose (MC) 90 % of control | dose: 120.0 mg/kg/injection, schedule: Q01DX Z (oral), vehicle: methylcellulose (MC) 100 % of control | dose: 240.0 mg/kg/injection, schedule: Q01DX Z (ip), vehicle: methylcellulose (MC) 110 % of control | dose: 240.0 mg/kg/injection, schedule: Q01DX Z (oral), vehicle: methylcellulose (MC) 89 % of control | dose: 300.0 mg/kg/injection, schedule: Q01DX Z (oral), vehicle: methylcellulose (MC) 100 % of control | dose: 360.0 mg/kg/injection, schedule: Q01DX Z (ip), vehicle: methylcellulose (MC) 103 % of control | dose: 400.0 mg/kg/injection, schedule: Q01DX Z (oral), vehicle: methylcellulose (MC) 105 % of control | dose: 480.0 mg/kg/injection, schedule: Q01DX Z (ip), vehicle: methylcellulose (MC) 107 % of control | dose: 480.0 mg/kg/injection, schedule: Q01DX Z (oral), vehicle: methylcellulose (MC) 101 % of control | dose: 720.0 mg/kg/injection, schedule: Q01DX Z (ip), vehicle: methylcellulose (MC) 95 % of control

Oc1ccccc1C=Nc1ccc(Cl)c(Cl)c1
inactive: [6] 93 % of control | [7] 93 % of control | [8] 96 % of control

Oc1ccc(Cl)cc1C1N(Cc2ccc(N(CCCl)CCCl)cc2Cl)CCCN1Cc1ccc(N(CCCl)CCCl)cc1Cl
inactive: dose: 50.0 mg/kg/injection, schedule: Q01DX001 (ip), vehicle: carboxymethylcellulose (CMC) 113 % of control | dose: 100.0 mg/kg/injection, schedule: Q01DX001 (ip), vehicle: carboxymethylcellulose (CMC) 96 % of control | dose: 200.0 mg/kg/injection, schedule: Q01DX001 (ip), vehicle: carboxymethylcellulose (CMC) 105 % of control | dose: 400.0 mg/kg/injection, schedule: Q01DX001 (ip), vehicle: carboxymethylcellulose (CMC) 96 % of control

O=Cc1ccc([N+](=O)[O-])s1
inactive: [9] 101 % of control | [10] 102 % of control | [11] 97 % of control | [12] 110 % of control | [13] 101 % of control | [14] 121 % of control

O=C(Nc1ccc(NC(=O)Nc2cccc(C3=NCCN3)c2)cc1)Nc1ccc(C2=NCCN2)cc1
inactive: dose: 1.0 mg/kg/injection, schedule: Q01DX Z (ip), vehicle: carboxymethylcellulose (CMC) 88 % of control | dose: 2.0 mg/kg/injection, schedule: Q01DX Z (ip), vehicle: carboxymethylcellulose (CMC) 102 % of control | dose: 4.0 mg/kg/injection, schedule: Q01DX Z (ip), vehicle: carboxymethylcellulose (CMC) 95 % of control | dose: 8.0 mg/kg/injection, schedule: Q01DX Z (ip), vehicle: carboxymethylcellulose (CMC) 107 % of control | dose: 14.0 mg/kg/injection, schedule: Q01DX Z (oral), vehicle: carboxymethylcellulose (CMC) 108 % of control | dose: 21.0 mg/kg/injection, schedule: Q01DX Z (oral), vehicle: carboxymethylcellulose (CMC) 109 % of control | dose: 32.0 mg/kg/injection, schedule: Q01DX Z (oral), vehicle: carboxymethylcellulose (CMC) 103 % of control | dose: 36.0 mg/kg/injection, schedule: Q01DX Z (ip), vehicle: carboxymethylcellulose (CMC) 116 % of control | dose: 48.0 mg/kg/injection, schedule: Q01DX Z (oral), vehicle: carboxymethylcellulose (CMC) 103 % of control | dose: 72.0 mg/kg/injection, schedule: Q01DX Z (oral), vehicle: carboxymethylcellulose (CMC) 122 % of control | dose: 125.0 mg/kg/injection, schedule: Q01DX Z (ip), vehicle: saline 91 % of control
active: dose: 18.0 mg/kg/injection, schedule: Q01DX Z (ip), vehicle: carboxymethylcellulose (CMC) 202 % of control | dose: 62.0 mg/kg/injection, schedule: Q01DX Z (ip), vehicle: saline 164 % of control

CCN(CC)c1cc[c]([Hg][O]C(C)=O)cc1
inactive: dose: 1.56 mg/kg/injection, schedule: Q04DX003 (ip), vehicle: saline with Tween-80 92 % of control | dose: 3.13 mg/kg/injection, schedule: Q04DX003 (ip), vehicle: saline with Tween-80 90 % of control | dose: 6.25 mg/kg/injection, schedule: Q04DX003 (ip), vehicle: saline with Tween-80 93 % of control and 94 % of control | dose: 12.5 mg/kg/injection, schedule: Q04DX003 (ip), vehicle: saline with Tween-80 93 % of control

CS(=O)(=O)c1ccc(F)c([N+](=O)[O-])c1
inactive: [1] 92 % of control | [2] 92 % of control | dose: 100.0 mg/kg/injection, schedule: Q04DX003 (ip), vehicle: Klucel (hydroxypropylcellulose) (HPC) 95 % of control

CC(C)(O)c1ccccc1
inactive: [3] 105 % of control | [9] 88 % of control | [10] 93 % of control | [4] 100 % of control | [11] 90 % of control | [12] 89 % of control | [5] 103 % of control | [13] 92 % of control | [14] 91 % of control

Cc1csc(C)[n+]1[O-]
inactive: [15] 102 % of control | [16] 101 % of control | [17] 98 % of control

CCCCC(CC)COc1nc(OCC(CC)CCCC)nc(OCC(CC)CCCC)n1 (stereo not drawn)
inactive: dose: 25.6 mg/kg/injection, schedule: Q04DX002 (ip), vehicle: saline with Tween-80 91 % of control | dose: 64.0 mg/kg/injection, schedule: Q04DX002 (ip), vehicle: saline with Tween-80 91 % of control | [10] 88 % of control | dose: 160.0 mg/kg/injection, schedule: Q04DX002 (ip), vehicle: saline with Tween-80 91 % of control | [12] 92 % of control | dose: 400.0 mg/kg/injection, schedule: Q04DX002 (ip), vehicle: saline with Tween-80 87 % of control | [14] 87 % of control

O=C(COc1cccc(Cl)c1)NCc1cccc(NC(=O)c2cccc(S(=O)(=O)F)c2)c1
inactive: dose: 100.0 mg/kg/injection, schedule: Q01DX001 (ip), vehicle: gum acacia 97 % of control | dose: 200.0 mg/kg/injection, schedule: Q01DX001 (ip), vehicle: gum acacia 93 % of control | dose: 400.0 mg/kg/injection, schedule: Q01DX001 (ip), vehicle: gum acacia 98 % of control

CCOC(=O)C1C(=O)CC(C)(O)C(C(=O)OCC)C1c1ccccc1 (stereo not drawn)
inactive: [3] 98 % of control | [15] 104 % of control | [4] 106 % of control | [16] 100 % of control | [5] 109 % of control | [17] 94 % of control

CSc1ncc2cnccn12
inactive: dose: 25.0 mg/kg/injection, schedule: Q01DX009 (ip), vehicle: water 95 % of control | dose: 25.0 mg/kg/injection, schedule: Q04DX003 (ip), vehicle: saline 106 % of control | dose: 50.0 mg/kg/injection, schedule: Q01DX009 (ip), vehicle: water 102 % of control | dose: 50.0 mg/kg/injection, schedule: Q04DX003 (ip), vehicle: saline 101 % of control | dose: 100.0 mg/kg/injection, schedule: Q01DX009 (ip), vehicle: water 102 % of control | [15] 101 % of control | dose: 100.0 mg/kg/injection, schedule: Q04DX003 (ip), vehicle: water 93 % of control
